{"source": "patent US6602827B1", "about": "“Herbicidal 5-chlorodifluoromethyl-1,3,4-thiadiazol-2-yl-oxyacetanilides” (Bayer Aktiengesellschaft, priority 1999, dated 2003)", "key": {"Galium [1]": {"test_system": "Galium", "experiment": "Post-emergence test/greenhouse", "assay_type": "in vivo", "settings": "1000 g of ai./ha, rated after three weeks vs untreated control, 0% = no effect, 100% = total destruction", "experimental": "(§1) Solvent: 5 parts by weight of acetone\n(§2) Emulsifier: 1 part by weight of alkylaryl polyglycol ether\n(§3) To produce a suitable preparation of active compound, 1 part by weight of active compound is mixed with the stated amount of solvent, the stated amount of emulsifier is added and the concentrate is diluted with water to the desired concentration.\n(§4) Test plants which have a height of 5 to 15 cm are sprayed with the preparation of active compound such that the particular amounts of active compound desired are applied per unit area. The concentration of the spray liquor is chosen so that the particular amounts of active compound desired are applied in 1000 1 of water/ha.\n(§5) After three weeks, the degree of damage to the plants is rated in % damage in comparison to the development of the untreated control.\n(§6) 0%=no effect (like untreated control))"}, "Setaria [2]": {"test_system": "Setaria", "experiment": "Post-emergence test/greenhouse", "assay_type": "in vivo", "settings": "1000 g of ai./ha, rated after three weeks vs untreated control, 0% = no effect, 100% = total destruction", "experimental": "as §1, §2, §3, §4, §5, §6"}, "Maize": {"test_system": "Maize", "experiment": "Post-emergence test/greenhouse", "assay_type": "in vivo", "settings": "1000 g of ai./ha, rated after three weeks vs untreated control, 0% = no effect, 100% = total destruction", "experimental": "as §1, §2, §3, §4, §5, §6"}, "Xanthium": {"test_system": "Xanthium", "experiment": "Post-emergence test/greenhouse", "assay_type": "in vivo", "settings": "1000 g of ai./ha, rated after three weeks vs untreated control, 0% = no effect, 100% = total destruction", "experimental": "as §1, §2, §3, §4, §5, §6"}, "weeds [3]": {"test_system": "weeds", "experiment": "Pre-emergence test, overall activity against weeds", "assay_type": "in vivo", "settings": "in words", "experimental": "(§7) Pre-emergence Test Solvent: 5 parts by weight of acetone Emulsifier: 1 part by weight of alkylaryl polyglycol ether To produce a suitable preparation of active compound, 1 part by weight of active compound is mixed with the stated amount of solvent, the stated amount of emulsifier is added and the concentrate is diluted with water to the desired concentration. Seeds of the test plants are sown in normal soil. After 24 hours, the soil is sprayed with the preparation of active compound such that the particular amount of active compound desired is applied per unit area. The active compound concentration in the spray liquor is chosen so that the particular amount of active compound desired is applied in 1000 liters of water per hectare. After three weeks, the degree of damage to the plants is rated in % damage in comparison to the development of the untreated control. The figures denote: 0%=no effect (like untreated control) 100%=total destruction"}, "[4]": {"test_system": "crop plants, such as soya and wheat", "experiment": "Pre-emergence test, crop tolerance", "assay_type": "in vivo", "settings": "in words", "experimental": "as §7"}, "weeds [5]": {"test_system": "weeds", "experiment": "Post-emergence test, overall activity against weeds", "assay_type": "in vivo", "settings": "in words", "experimental": "as §1, §2, §3, §4, §5, §6"}, "Eriochloa": {"test_system": "Eriochloa", "experiment": "Pre-emergence test/greenhouse", "assay_type": "in vivo", "settings": "125 g of ai./ha, rated after three weeks vs untreated control, 0% = no effect, 100% = total destruction", "experimental": "as §7"}, "Galium [6]": {"test_system": "Galium", "experiment": "Pre-emergence test/greenhouse", "assay_type": "in vivo", "settings": "125 g of ai./ha, rated after three weeks vs untreated control, 0% = no effect, 100% = total destruction", "experimental": "as §7"}, "Setaria [7]": {"test_system": "Setaria", "experiment": "Pre-emergence test/greenhouse", "assay_type": "in vivo", "settings": "125 g of ai./ha, rated after three weeks vs untreated control, 0% = no effect, 100% = total destruction", "experimental": "as §7"}, "Lolium": {"test_system": "Lolium", "experiment": "Pre-emergence test/greenhouse", "assay_type": "in vivo", "settings": "125 g of ai./ha, rated after three weeks vs untreated control, 0% = no effect, 100% = total destruction", "experimental": "as §7"}, "Matricaria": {"test_system": "Matricaria", "experiment": "Pre-emergence test/greenhouse", "assay_type": "in vivo", "settings": "125 g of ai./ha, rated after three weeks vs untreated control, 0% = no effect, 100% = total destruction", "experimental": "as §7"}, "Wheat": {"test_system": "Wheat", "experiment": "Pre-emergence test/greenhouse", "assay_type": "in vivo", "settings": "125 g of ai./ha, rated after three weeks vs untreated control, 0% = no effect, 100% = total destruction", "experimental": "as §7"}, "Soya": {"test_system": "Soya", "experiment": "Pre-emergence test/greenhouse", "assay_type": "in vivo", "settings": "125 g of ai./ha, rated after three weeks vs untreated control, 0% = no effect, 100% = total destruction", "experimental": "as §7"}, "[8]": {"test_system": "crop plants, such as maize", "experiment": "Post-emergence test, crop tolerance", "assay_type": "in vivo", "settings": "in words", "experimental": "as §1, §2, §3, §4, §5, §6"}}, "data": [{"smiles": "CC(C)N(C(=O)COc1nnc(C(F)(F)Cl)s1)c1ccc(F)cc1", "note": "[Example 1, N-i-propyl-N-(4-fluoro-phenyl)-2-(5-chlorodifluoromethyl-1,3,4-thiadiazol-2-yl-oxy)-acetamide]", "values": [{"measurement": "degree of damage, Galium", "setting": "Galium [1]", "result": 95, "unit": "%"}, {"measurement": "degree of damage, Setaria", "setting": "Setaria [2]", "result": 95, "unit": "%"}, {"measurement": "degree of damage, Maize", "setting": "Maize", "result": 30, "unit": "%"}, {"measurement": "degree of damage, Xanthium", "setting": "Xanthium", "result": 80, "unit": "%"}, {"measurement": "activity against weeds", "setting": "weeds [3]", "result": "very strong activity"}, {"measurement": "tolerance by crop plants", "setting": "[4]", "result": "tolerated well"}, {"measurement": "activity against weeds", "setting": "weeds [5]", "result": "strong activity"}, {"measurement": "melting point", "result": 98, "unit": "°C"}, {"measurement": "degree of damage, Eriochloa", "setting": "Eriochloa", "result": 100, "unit": "%"}, {"measurement": "degree of damage, Galium", "setting": "Galium [6]", "result": 90, "unit": "%"}, {"measurement": "degree of damage, Setaria", "setting": "Setaria [7]", "result": 100, "unit": "%"}, {"measurement": "degree of damage, Lolium", "setting": "Lolium", "result": 90, "unit": "%"}, {"measurement": "degree of damage, Matricaria", "setting": "Matricaria", "result": 100, "unit": "%"}, {"measurement": "degree of damage, Wheat", "setting": "Wheat", "result": 0, "unit": "%"}, {"measurement": "degree of damage, Soya", "setting": "Soya", "result": 0, "unit": "%"}, {"measurement": "tolerance by crop plants", "setting": "[8]", "result": "tolerated well"}]}]}
